Assay results from the supplement of paper PMC8671470.

Assays:
Conditions in all cases: 72 h
HL-60 = test: area under dose-response curve (viability, 1 nM-10 uM) (fraction (0-1)); higher = more sensitive
Outline: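 Four-parameter log-logistic fits in drc and PharmacoGx supplied area under the curve where it is given. Underlying viability came from CellTiter-Glo, normalised to DMSO and proteasome-inhibitor wells, with the proteasome inhibitor at 10 μM. HL-60 cells in RPMI 1640 plus 10% FBS had been rescreened against the full library at five tenfold concentrations of 1–10,000 nM, in duplicate on 384-well plates, with DMSO or 100 nM of one of three metabolic inhibitors, for 72 h at 37 °C, 5% CO2.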

KCL-22 = test: cell viability (% survival relative to DMSO control, bortezomib = 0%); higher = less cytotoxic
Outline: (§1)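 Fifteen myeloid leukaemia cell lines (10 AML, 5 CML) were seeded at a density titrated to the linear growth range. They went into 384-well plates with compounds pre-printed at 1, 10, 100, 1000 or 10000 nM in duplicate. After 72 h at 37 °C with 5% CO2, viability was read by CellTiter-Glo luminescence. Values are percent survival, with vehicle set to 100% and a 10 µM positive control to 0%, averaged over the duplicates.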

HEL = test: as above
Outline: as §1

[1] = tested on: myeloid leukemia patient primary cells Pat.3; test: cell viability (% survival relative to DMSO control); higher = less cytotoxic
Outline: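 Thawed, Ficoll-purified mononuclear cells from AML or CML patients in RPMI 1640 with 10% FBS were seeded at 10,000 cells/well on 384-well plates pre-printed with 70 compounds at five tenfold concentrations, 1–10,000 nM, in duplicate, for 72 h. Viability was read by CellTiter-Glo and normalised to DMSO and 10 μM proteasome-inhibitor wells. Where given, area under the curve came from four-parameter log-logistic fits (drc, PharmacoGx R packages).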

[2] = co-treatment: GSK2194069 100 nM
[3] = co-treatment: pictilisib 100 nM

SMILES	area under dose-response curve (HL-60; co-treatment: AZD3965 100 nM)	area under dose-response curve (HL-60; co-treatment: DMSO vehicle)	area under dose-response curve (HL-60; [2])	area under dose-response curve (HL-60; [3])	cell viability (KCL-22; 1 nM) [%]	cell viability (KCL-22; 10 nM) [%]	cell viability (KCL-22; 100 nM) [%]	cell viability (KCL-22; 1000 nM) [%]	cell viability (KCL-22; 10000 nM) [%]	cell viability (HEL; 1 nM) [%]	cell viability (HEL; 10 nM) [%]	cell viability (HEL; 100 nM) [%]	cell viability (HEL; 1000 nM) [%]	cell viability (HEL; 10000 nM) [%]	cell viability ([1]; 1 nM) [%]	cell viability ([1]; 10 nM) [%]	cell viability ([1]; 100 nM) [%]	cell viability ([1]; 1000 nM) [%]	cell viability ([1]; 10000 nM) [%]
C[C@]12O[C@H](C[C@]1(O)CO)n1c3ccccc3c3c4c(c5c6ccccc6n2c5c31)CNC4=O [Lestaurtinib]	0.381	0.293	0.335	0.452	104	91	59.6	21.8	1.08	95.5	90.4	33.2	19.1	4.54	90.1	53	69	16	8.21
CC(Cc1ccc(O)c(O)c1)C(C)Cc1ccc(O)c(O)c1 (stereo unspecified) [Masoprocol]	0.12	0.104	0.0826	0.142	99.8	85.9	120	108	66.2	114	106	137	114	79.8	90.1	91.5	80.4	35.8	5.51
COc1c(C)c2c(c(O)c1C/C=C(\C)CCC(=O)O)C(=O)OC2 [Mycophenolic acid]	0.0599	< 0.0301	0.0302	0.0317	105	98.8	79.8	24.7	8.9	94.5	108	104	51.7	3.56	65.5	81.3	99.4	56.5	47.4
NC(=O)c1ncn([C@@H]2O[C@H](CO)[C@@H](O)[C@H]2O)n1 [Ribavirin]	< 0.0301	< 0.0301	< 0.0301	< 0.0301	72.9	104	114	107	103	92.5	104	111	113	112	–	–	–	–	–
Nc1ncnc2c1ncn2[C@@H]1O[C@H](CSCC[C@H](N)C(=O)O)[C@@H](O)[C@H]1O [S-Adenosyl Homocysteine]	< 0.0301	< 0.0301	< 0.0301	< 0.0301	97.5	113	98.5	94.5	102	108	114	104	101	113	–	–	–	–	–
CCCc1nn(C)c2c(O)nc(-c3cc(S(=O)(=O)N4CCN(C)CC4)ccc3OCC)nc12 [Sildenafil]	< 0.0301	< 0.0301	< 0.0301	< 0.0301	89.7	102	97.5	88.7	113	96.8	115	100	108	122	–	–	–	–	–
Cc1coc2c1C(=O)C(=O)c1c-2ccc2c(C)cccc12 [Tanshinone I]	< 0.0301	< 0.0301	< 0.0301	< 0.0301	125	100	108	111	59.5	121	97.3	107	106	92.7	–	–	–	–	–
CCOC(=O)N1c2ccc(C(F)(F)F)cc2[C@@H](N(Cc2cc(C(F)(F)F)cc(C(F)(F)F)c2)C(=O)OC)C[C@H]1CC [Torcetrapib]	< 0.0301	< 0.0301	< 0.0301	< 0.0301	105	107	126	98.3	86.8	102	96.9	134	103	109	97	62.9	95.2	88.7	22.4
Oc1cc(Cl)ccc1Oc1ccc(Cl)cc1Cl [Triclosan]	< 0.0301	< 0.0301	< 0.0301	< 0.0301	115	98.3	89.7	105	65.5	118	110	86.3	105	108	–	–	–	–	–
